# According to PubChem BioAssay (NCI):
# “And” between values parts separate entries of the source, which are not always exact repeats. Equal entries are not always repeated.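 Growth conditions: 96-well plates. Treatment: test compound, 48 hours, 5 concentrations. Analysis: linear interpolation between bracketing concentrations; unreached endpoints set to highest concentration. At the GI50, growth is halved. TGI marks complete inhibition of growth.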
# What was measured:
# Assay in all cases: DTP human tumour cell line panel, 48 h
# 786-0 renal = tested on: 786-0 renal
# A498 renal = tested on: A498 renal
# A549 NSCLC = tested on: A549 NSCLC
# ACHN renal = tested on: ACHN renal
# BT-549 breast = tested on: BT-549 breast
# CAKI-1 renal = tested on: CAKI-1 renal
# CCRF-CEM leukemia = tested on: CCRF-CEM leukemia
# COLO 205 colon = tested on: COLO 205 colon
# DU-145 prostate = tested on: DU-145 prostate
# EKVX NSCLC = tested on: EKVX NSCLC
# HCC-2998 colon = tested on: HCC-2998 colon
# HCT-116 colon = tested on: HCT-116 colon
# HCT-15 colon = tested on: HCT-15 colon
# HL-60(TB) leukemia = tested on: HL-60(TB) leukemia
# HOP-62 NSCLC = tested on: HOP-62 NSCLC
# HOP-92 NSCLC = tested on: HOP-92 NSCLC
# HS 578T breast = tested on: HS 578T breast
# HT29 colon = tested on: HT29 colon
# IGROV1 ovarian = tested on: IGROV1 ovarian
# K-562 leukemia = tested on: K-562 leukemia
# KM12 colon = tested on: KM12 colon
# LOX IMVI melanoma = tested on: LOX IMVI melanoma
# M14 melanoma = tested on: M14 melanoma
# MALME-3M melanoma = tested on: MALME-3M melanoma
# MCF7 breast = tested on: MCF7 breast
# MDA-MB-231 breast = tested on: MDA-MB-231 breast
# MDA-MB-435 = tested on: MDA-MB-435
# MDA-N = tested on: MDA-N
# MOLT-4 leukemia = tested on: MOLT-4 leukemia
# NCI-H226 lung = tested on: NCI-H226 lung
# NCI-H23 lung = tested on: NCI-H23 lung
# NCI-H460 lung = tested on: NCI-H460 lung
# NCI/ADR-RES ovarian = tested on: NCI/ADR-RES ovarian
# OVCAR-3 ovarian = tested on: OVCAR-3 ovarian
# OVCAR-4 ovarian = tested on: OVCAR-4 ovarian
# OVCAR-5 ovarian = tested on: OVCAR-5 ovarian
# OVCAR-8 ovarian = tested on: OVCAR-8 ovarian
# PC-3 prostate = tested on: PC-3 prostate
# RPMI-8226 leukemia = tested on: RPMI-8226 leukemia
# RXF 393 renal = tested on: RXF 393 renal
# SF-268 CNS = tested on: SF-268 CNS
# SF-295 CNS = tested on: SF-295 CNS
# SF-539 CNS = tested on: SF-539 CNS
# SK-MEL-2 melanoma = tested on: SK-MEL-2 melanoma
# SK-MEL-28 melanoma = tested on: SK-MEL-28 melanoma
# SK-MEL-5 melanoma = tested on: SK-MEL-5 melanoma
# SK-OV-3 ovarian = tested on: SK-OV-3 ovarian
# SN12C renal = tested on: SN12C renal
# SNB-19 CNS = tested on: SNB-19 CNS
# SNB-75 CNS = tested on: SNB-75 CNS
# SR leukemia = tested on: SR leukemia
# SW-620 colon = tested on: SW-620 colon
# T-47D breast = tested on: T-47D breast
# TK-10 renal = tested on: TK-10 renal
# U251 CNS = tested on: U251 CNS
# UACC-257 melanoma = tested on: UACC-257 melanoma
# UACC-62 melanoma = tested on: UACC-62 melanoma
# UO-31 renal = tested on: UO-31 renal
# NCI-H522 lung = tested on: NCI-H522 lung
smiles,measurement,setting,value
OC1(c2ccccc2)CC2CCC(C1)N2CCc1ccccc1 (configuration not stated),TGI,786-0 renal,> 100 µM
same,TGI,A498 renal,56.4 µM
same,TGI,A549 NSCLC,> 100 µM
same,TGI,ACHN renal,> 100 µM
same,TGI,BT-549 breast,> 100 µM
same,TGI,CAKI-1 renal,> 100 µM
same,TGI,CCRF-CEM leukemia,> 100 µM
same,TGI,COLO 205 colon,35.7 µM
same,TGI,DU-145 prostate,> 100 µM
same,TGI,EKVX NSCLC,> 100 µM
same,TGI,HCC-2998 colon,> 100 µM
same,TGI,HCT-116 colon,> 100 µM
same,TGI,HCT-15 colon,> 100 µM
same,TGI,HL-60(TB) leukemia,> 100 µM
same,TGI,HOP-62 NSCLC,> 100 µM
same,TGI,HOP-92 NSCLC,> 100 µM
same,TGI,HS 578T breast,80.6 µM
same,TGI,HT29 colon,79.3 µM
same,TGI,IGROV1 ovarian,> 100 µM
same,TGI,K-562 leukemia,> 100 µM
same,TGI,KM12 colon,> 100 µM
same,TGI,LOX IMVI melanoma,> 100 µM
same,TGI,M14 melanoma,> 100 µM
same,TGI,MALME-3M melanoma,> 100 µM
same,TGI,MCF7 breast,78.1 µM
same,TGI,MDA-MB-231 breast,> 100 µM
same,TGI,MDA-MB-435,> 100 µM
same,TGI,MDA-N,> 100 µM
same,TGI,MOLT-4 leukemia,> 100 µM
same,TGI,NCI-H226 lung,> 100 µM
same,TGI,NCI-H23 lung,> 100 µM
same,TGI,NCI-H460 lung,> 100 µM
same,TGI,NCI/ADR-RES ovarian,> 100 µM
same,TGI,OVCAR-3 ovarian,> 100 µM
same,TGI,OVCAR-4 ovarian,> 100 µM
same,TGI,OVCAR-5 ovarian,> 100 µM
same,TGI,OVCAR-8 ovarian,> 100 µM
same,TGI,PC-3 prostate,> 100 µM
same,TGI,RPMI-8226 leukemia,> 100 µM
same,TGI,RXF 393 renal,> 100 µM
same,TGI,SF-268 CNS,> 100 µM
same,TGI,SF-295 CNS,> 100 µM
same,TGI,SF-539 CNS,> 100 µM
same,TGI,SK-MEL-2 melanoma,> 100 µM
same,TGI,SK-MEL-28 melanoma,> 100 µM
same,TGI,SK-MEL-5 melanoma,28.6 µM
same,TGI,SK-OV-3 ovarian,> 100 µM
same,TGI,SN12C renal,> 100 µM
same,TGI,SNB-19 CNS,> 100 µM
same,TGI,SNB-75 CNS,> 100 µM
same,TGI,SR leukemia,> 100 µM
same,TGI,SW-620 colon,> 100 µM
same,TGI,T-47D breast,> 100 µM
same,TGI,TK-10 renal,> 100 µM
same,TGI,U251 CNS,> 100 µM
same,TGI,UACC-257 melanoma,59.1 µM
same,TGI,UACC-62 melanoma,> 100 µM
same,TGI,UO-31 renal,> 100 µM
COc1ccc(C(=O)/C=C/c2ccc(O)c(O)c2F)c(OC)c1,GI50,786-0 renal,1.88 µM
same,TGI,786-0 renal,31.3 µM and 17.1 µM
same,GI50,A498 renal,10.5 µM
same,TGI,A498 renal,21.3 µM and 30.6 µM
same,GI50,A549 NSCLC,8.62 µM
same,TGI,A549 NSCLC,75 µM and > 100 µM
same,GI50,ACHN renal,5.49 µM
same,TGI,ACHN renal,25.6 µM and > 100 µM
same,GI50,BT-549 breast,6.24 µM
same,TGI,BT-549 breast,18 µM and 26.2 µM
same,GI50,CAKI-1 renal,5.73 µM
same,TGI,CAKI-1 renal,75 µM and 44.9 µM
same,TGI,CCRF-CEM leukemia,6.5 µM
same,GI50,COLO 205 colon,12.9 µM
same,TGI,COLO 205 colon,22.1 µM and 27.2 µM
same,GI50,DU-145 prostate,5.38 µM
same,TGI,DU-145 prostate,16.2 µM and 19 µM
same,GI50,EKVX NSCLC,10.9 µM
same,TGI,EKVX NSCLC,30.3 µM and 28.9 µM
same,GI50,HCC-2998 colon,3.41 µM
same,TGI,HCC-2998 colon,12.2 µM and 12.3 µM
same,GI50,HCT-116 colon,2.66 µM
same,TGI,HCT-116 colon,14 µM and 10 µM
same,GI50,HCT-15 colon,0.444 µM
same,TGI,HCT-15 colon,13.8 µM and 29.3 µM
same,GI50,HOP-62 NSCLC,19.8 µM
same,TGI,HOP-62 NSCLC,37.1 µM and > 100 µM
same,GI50,HOP-92 NSCLC,36 µM
same,TGI,HOP-92 NSCLC,75 µM and > 100 µM
same,GI50,HS 578T breast,7.34 µM
same,TGI,HS 578T breast,75 µM and > 100 µM
same,GI50,HT29 colon,4.03 µM
same,TGI,HT29 colon,23.8 µM and 17.7 µM
same,GI50,IGROV1 ovarian,12.8 µM
same,TGI,IGROV1 ovarian,75 µM and > 100 µM
same,TGI,K-562 leukemia,75 µM and 18.1 µM
same,TGI,KM12 colon,27.8 µM and 23.9 µM
same,GI50,LOX IMVI melanoma,4.95 µM
same,TGI,LOX IMVI melanoma,20.3 µM and 20.4 µM
same,TGI,M14 melanoma,16.7 µM and 28 µM
same,GI50,MALME-3M melanoma,12 µM
same,TGI,MALME-3M melanoma,22.6 µM and 25.2 µM
same,GI50,MCF7 breast,0.334 µM
same,TGI,MCF7 breast,9.83 µM and 13.1 µM
same,TGI,MDA-MB-231 breast,38.1 µM and 42.1 µM
same,GI50,MDA-MB-435,2.51 µM
same,TGI,MDA-MB-435,75 µM and 44.1 µM
same,GI50,MDA-N,2.38 µM
same,TGI,MDA-N,27.2 µM and 25.8 µM
same,GI50,MOLT-4 leukemia,0.259 µM
same,TGI,MOLT-4 leukemia,75 µM and 11.6 µM
same,TGI,NCI-H226 lung,37.1 µM and 46.3 µM
same,GI50,NCI-H23 lung,5.27 µM
same,TGI,NCI-H23 lung,12.6 µM and 32.1 µM
same,TGI,NCI-H460 lung,13 µM and 15.9 µM
same,GI50,NCI-H522 lung,0.481 µM
same,TGI,NCI-H522 lung,5.56 µM and 3.18 µM
same,GI50,NCI/ADR-RES ovarian,4.16 µM
same,TGI,NCI/ADR-RES ovarian,67.7 µM and > 100 µM
same,GI50,OVCAR-3 ovarian,2.63 µM
same,GI50,OVCAR-4 ovarian,9.3 µM
same,TGI,OVCAR-4 ovarian,75 µM and > 100 µM
same,GI50,OVCAR-5 ovarian,15.3 µM
same,TGI,OVCAR-5 ovarian,23.3 µM and 34.8 µM
same,GI50,OVCAR-8 ovarian,8.81 µM
same,TGI,OVCAR-8 ovarian,65.5 µM and > 100 µM
same,GI50,PC-3 prostate,6.18 µM
same,TGI,PC-3 prostate,17.7 µM and 24 µM
same,GI50,RPMI-8226 leukemia,0.923 µM
same,TGI,RPMI-8226 leukemia,31 µM and 8.25 µM
same,GI50,RXF 393 renal,11.6 µM
same,TGI,RXF 393 renal,26.4 µM and 32.1 µM
same,GI50,SF-268 CNS,8.75 µM
same,TGI,SF-268 CNS,75 µM and 59.1 µM
same,GI50,SF-295 CNS,10.9 µM
same,TGI,SF-295 CNS,26.3 µM and 34.4 µM
same,GI50,SF-539 CNS,4.5 µM
same,TGI,SF-539 CNS,15.7 µM and 28.5 µM
same,TGI,SK-MEL-2 melanoma,13.4 µM and 13.6 µM
same,GI50,SK-MEL-28 melanoma,11.6 µM
same,TGI,SK-MEL-28 melanoma,33.4 µM and 30.7 µM
same,GI50,SK-MEL-5 melanoma,2.7 µM
same,TGI,SK-MEL-5 melanoma,13.6 µM and 19.6 µM
same,GI50,SK-OV-3 ovarian,17.6 µM
same,TGI,SK-OV-3 ovarian,47 µM and 90.3 µM
same,GI50,SN12C renal,2.42 µM
same,TGI,SN12C renal,18.6 µM and 11.9 µM
same,GI50,SNB-19 CNS,10.7 µM
same,TGI,SNB-19 CNS,19 µM and 26.1 µM
same,GI50,SNB-75 CNS,4.53 µM
same,TGI,SNB-75 CNS,40.3 µM and 18.9 µM
same,GI50,SR leukemia,0.072 µM
same,TGI,SW-620 colon,75 µM and 25.5 µM
same,GI50,T-47D breast,3.21 µM
same,TGI,T-47D breast,75 µM and > 100 µM
same,GI50,TK-10 renal,7.64 µM
same,TGI,TK-10 renal,28.5 µM and 23.4 µM
same,GI50,U251 CNS,4.12 µM
same,TGI,U251 CNS,23.1 µM and 17.9 µM
same,GI50,UACC-257 melanoma,10.5 µM
same,TGI,UACC-257 melanoma,18.4 µM and 22.3 µM
same,TGI,UACC-62 melanoma,16.8 µM and 21.9 µM
same,GI50,UO-31 renal,7.04 µM
same,TGI,UO-31 renal,16.3 µM and 38.4 µM
